From US10519177B2, “Heterocyclic compounds and uses thereof” (Plexxikon Inc., priority 2013, dated 2019) come the findings set out here.

Like-named read-outs stand apart in the source and are kept apart here.

One assay concerns MV-4-11 cells. The assay can be described thus: Oncology cell growth assay MV-4-11 (CellTiter Glo). Type of assay: cell-based. As to conditions: Homo sapiens, MV4-11, 72 h, read-out: Cell activity (IC50 μM) MV-4-11 3d-Growth. The text has this:
Published bromodomain inhibitors JQ1 and iBET 151 have shown activity in variety of cancer cells such leukemia and lymphoma, multiple myeloma cells, NUT midline carcinoma and glioblastoma cells (Dawson M A et al. 2011; Delmore J E 2011; Chen Z et al. 2013; Filippakopoulos P et al. 2010; Mertz J A et al. 2011; Ott C J et al. 2012). In this study, we test compounds in different cancer cell lines. MV-4-11 and MOLM-13 are AML cell lines harboring a MLL-AF4 and MLL-AF9 translocation, respectively. MM.1S is a multiple myeloma cell line. SK-N-AS, IMR-32 and SK-N-BE(2) are neuroblastoma cell lines. IMR-32 and SK-N-BE(2) cell lines harbor MYCN amplifications.
MV-4-11, MM.1S, IMR-32, SK-N-AS and SK-N-BE(2) were obtained from ATCC (IL, USA) and MOLM-13 were purchased from DSMZ (Braunschweig, German). Cells are cultured as recommended by their sources. For growth inhibition studies 3000 cells are seeded in wells of a 96-well plate in 75 μL of culture media. After several hours, growth media containing compounds of formula (I) are added to the wells. Compound at a maximal concentration of 5 mM was serially diluted 1:3 for a total of 8 point titration with DMSO as a control. A 1 μL aliquot of each dilution point is added to 249 μL growth media and 75 μL is added to each well containing cells, providing 10 μM compound at the maximum concentration point. The final concentration of DMSO in all wells is 0.2%. Cells are incubated for 72 hours, and 25 μL of CellTiter Glo Reagent (Promega GA, USA) is added to each well. Plates are shaken for approximately 10 minutes and chemiluminescent signal is read on Tecan microplate reader. The measured luminescence correlates directly with cell number.
All data is normalized to the mean of eight DMSO high control wells on each plate. A four parameter curve fit of the following formula was then applied: Y=a+(b−a)/(1+(x/c)^d) Where ‘a’ is the minimum, ‘b’ is the maximum, ‘c’ is the pIC50 and ‘d’ is the Hill slope. […] Myc Reporter Assay

The next assay concerns the target BRD4-BD12 (1-477) (Homo sapiens (Human), UniProt O60885). The assay can be described thus: Alphascreen binding assay BRD4-BD12. As to conditions: BRD4(1 2) H4; read-out: Biochemical activity (IC50 μM) BRD4(1 2) H4. On the procedure:
Binding of compounds of formula (I) with bromodomain 2, 3 4 was assessed using Alphascreen binding assay. The inhibition of the interaction between bromodomain and its acetylated target protein (Filippakopoulos P et al. 2012) was measured quantitatively using recombinant BRD proteins, an acetylated Histone 4 peptide and AlphaScreen™ technology. In absence of inhibition the BRD protein bound to AlphaScreen™ nickel chelate acceptor beads can interact with the acetylated Histone 4 peptide which is immobilized by the AlphaScreen™ Streptavidin coated beads. This interaction brings donor and acceptor beads in proximity. The close proximity allows the singlet oxygen produced by laser excitation of the donor beads to reach the acceptor beads and generate a luminescence signal.
Recombinant human bromodomains containing the N-terminal bromodomain (BRD2-BD1 (71-194), BRD3-BD1 (24-144) and BRD4-BD1 (44-164)) or dual bromodomains (BRD4-BD12 (1-477), BRD4-BD12 (1-472)) were prepared and purified as described in protein expression and purification session. The peptide is human Histone H41-21K5AcK8AcK12AcK16Ac-Biotin (Anaspec CA, USA).
Protocol for BRD2, BRD3 and BRD4 assay: All components are prepared in buffer composed of 50 mM HEPES pH 7.5, 100 mM NaCl, 0.01% bovine serum albumin (“BSA”), 0.01% Triton X-100, 2 mM dithiothreitol (“DTT”). 7 μL of Bromodomain protein and 7 μL of peptide are added to wells containing 1 μL of various concentrations of test compounds of formula (I) or DMSO vehicle in an Alphaplate (PerkinElmer GA, USA) and incubated for 1 hour at room temperature. 4 μL donor and acceptor bead mixture is then added with final concentrations of 7.5 μg/ml. 30 minutes after bead addition, Alpha signal is read on the Envision spectrometer (λEx 680 nm, λEm 520-620 nm). Final concentrations of bromodomain proteins and peptide are as shown below.
All data was normalized to the mean of 16 high and 16 low control wells on each plate. A four parameter curve fit of the following formula was then applied: Y=a+(b−a)/(1+(x/c)^d) Where ‘a’ is the minimum, ‘b’ is the maximum, ‘c’ is the pIC50 and ‘d’ is the Hill slope. Protein Expression and Purification
Recombinant human bromodomains containing the N-terminal bromodomain (BRD2-BD1 (71-194), BRD3-BD1 (24-144) and BRD4-BD1 (44-164)) or dual bromodomains (BRD4-BD12 (1-477), BRD4-BD12 (1-472)) were expressed in E. coli cells (in a modified pET vector) with an N-terminal six-His tag and purified using a combination of both IMAC (Ni-affinity) and size exclusion chromatography steps.
Recombinant BRD proteins were expressed using the E. coli strain BL21-CodonPlus (DE3) (Agilent Technologies CA, USA). Cells were grown in Terrific Broth (TB) media to an OD600 of 1.2 at 37° C. at which temperature was reduced to 25° C., protein was induced with 1.0 mM ispropyl-β-D-thiogalactopyranoside (“IPTG”) for 12-18 hours and harvested by centrifugation at 8000×g for 20 minutes. Cells were re-suspended in 0.1M K2PO4 pH 8.0, 250 mM NaCl, 10% Glycerol, 0.75% NP-40, 25 mM Imidazole, 5 mM beta-mercaptoethanol (“BME”) with 0.2 mg/ml Lysosyme, 2.0 mM phenylmethanesulfonyl fluoride (“PMSF”), 25 μg/ml DNAse I, incubated on ice for 30 minutes and lyzed with a cell disruptor (MicroFluidics MA, USA). The lysate was clarified by centrifugation at 20,000×g for 2 hours. The protein was captured with Ni-NTA resin (Life Technologies, USA). Contaminating proteins were washed off with 25 mM Tris-HCl pH 8.3, 250 mM NaCl, 12% Glycerol and 50 mM Imidazole. Following 3× wash steps, protein was eluted step wise using a 50 mM HEPES pH 7.5, 500 mM NaCl and 400 mM Imidazole. The protein was further purified using Gel Filtration column 26/600 Superdex 200 (GE Biosciences NJ, USA) in 50 mM HEPES pH 7.5, 250 mM NaCl. The protein was aliquoted and flash-frozen in liquid Nitrogen.
For orientation: Alpha assays give light when donor and acceptor beads are brought close together.

For the compound `CNC(=O)c1ccc(-c2cn(CC3(F)CCC(F)(F)CC3)c3cc(-c4c(C)noc4C)cnc23)cn1` [P-0380, 5-[6-(3,5-dimethylisoxazol-4-yl)-1-[(1,4,4-trifluorocyclohexyl)methyl]pyrrolo[3,2-b]pyridin-3-yl]-N-methyl-pyridine-2-carboxamide], the IC50 in the assay on MV-4-11 cells and at BRD4-BD12 (1-477) was under 1 µM each time. Take `Cc1noc(C)c1-c1cnc2c(-c3ccccc3C(=O)O)cn(CC3CCC(F)(F)CC3)c2c1` [P-0398, 2-[1-[(4,4-difluorocyclohexyl)methyl]-6-(3,5-dimethylisoxazol-4-yl)pyrrolo[3,2-b]pyridin-3-yl]benzoic acid]: the IC50 with MV-4-11 cells and on BRD4-BD12 (1-477) was under 1 µM throughout. Regarding `Cc1ccc(-c2cn([C@@H](C)c3ccccn3)c3cc(-c4c(C)noc4C)cnc23)cc1` [P-0900, 3,5-dimethyl-4-[3-(p-tolyl)-1-[(1S)-1-(2-pyridyl)ethyl]pyrrolo[3,2-b]pyridin-6-yl]isoxazole], the IC50 – broadly, the concentration that inhibits the measured activity by half – was under 1 µM in the assay with MV-4-11 cells (MV-4-11, 3d growth) and under 1 µM at BRD4-BD12 (1-477). For the compound `Cc1ccc(-c2cn(C(c3ccccc3)c3ccccn3)c3cc(-c4c(C)noc4C)cnc23)cc1` (stereo not shown) [P-0901, 3,5-dimethyl-4-[1-[phenyl(2-pyridyl)methyl]-3-(p-tolyl)pyrrolo[3,2-b]pyridin-6-yl]isoxazole], the IC50 was under 1 µM in the assay on MV-4-11 cells (MV-4-11, 3d growth) and under 1 µM at BRD4-BD12 (1-477). Regarding `COC(=O)Cc1ccc(-c2cn(C(c3ccccc3)c3ccccn3)c3cc(-c4c(C)noc4C)cnc23)cc1` (stereo not shown) [P-0902, methyl 2-[4-[6-(3,5-dimethylisoxazol-4-yl)-1-[phenyl(2-pyridyl)methyl]pyrrolo[3,2-b]pyridin-3-yl]phenyl]acetate], the IC50 in the assay with MV-4-11 cells (MV-4-11, 3d growth) is under 1 µM; at BRD4-BD12 (1-477), under 1 µM. On to `Cc1noc(C)c1-c1cnc2c(-c3ccc(CC(=O)O)cc3)cn(C(c3ccccc3)c3ccccn3)c2c1` (stereo not shown) [P-0903, 2-[4-[6-(3,5-dimethylisoxazol-4-yl)-1-[phenyl(2-pyridyl)methyl]pyrrolo[3,2-b]pyridin-3-yl]phenyl]acetic acid], for which the IC50 with MV-4-11 cells (MV-4-11, 3d growth) is under 1 µM; on BRD4-BD12 (1-477) it was under 1 µM. Take `COC(=O)c1ccc(-c2cn(CC3CCCCC3)c3cc(-c4c(C)noc4C)cnc23)cc1OC` [P-0904, methyl 4-[1-(cyclohexylmethyl)-6-(3,5-dimethylisoxazol-4-yl)pyrrolo[3,2-b]pyridin-3-yl]-2-methoxy-benzoate]: the IC50 in the assay on MV-4-11 cells (MV-4-11, 3d growth) is under 1 µM; at BRD4-BD12 (1-477), under 1 µM.

With `Cc1noc(C)c1-c1cnc2c(-c3ccc(C(C)(C)C#N)cc3)cn(CC3CCC(F)(F)CC3)c2c1` [P-0905, 2-[4-[1-[(4,4-difluorocyclohexyl)methyl]-6-(3,5-dimethylisoxazol-4-yl)pyrrolo[3,2-b]pyridin-3-yl]phenyl]-2-methyl-propanenitrile], the IC50 in the assay on MV-4-11 cells (MV-4-11, 3d growth) was under 1 µM; on BRD4-BD12 (1-477), under 1 µM. Take `Cc1noc(C)c1-c1cnc2c(I)cn(C(c3ccccc3)c3ccccn3)c2c1` (stereo not shown) [P-0906, 4-[3-iodo-1-[phenyl(2-pyridyl)methyl]pyrrolo[3,2-b]pyridin-6-yl]-3,5-dimethyl-isoxazole]: the IC50 was under 1 µM with MV-4-11 cells (MV-4-11, 3d growth) and under 1 µM on BRD4-BD12 (1-477). Take `Cc1noc(C)c1-c1cnc2c(-c3ccc(C#N)nc3)cn(C(c3ccccc3)c3ccccn3)c2c1` (stereo not shown) [P-0907, 5-[6-(3,5-dimethylisoxazol-4-yl)-1-[phenyl(2-pyridyl)methyl]pyrrolo[3,2-b]pyridin-3-yl]pyridine-2-carbonitrile]: the IC50 with MV-4-11 cells (MV-4-11, 3d growth) was under 1 µM; at BRD4-BD12 (1-477), under 1 µM. With `[2H]C([2H])([2H])c1noc(C([2H])([2H])[2H])c1-c1cnc2c(-c3ccc(C(=O)O)cc3)cn(CC3CCC(F)(F)CC3)c2c1` [P-0908, 4-[6-[3,5-bis(trideuteriomethyl)isoxazol-4-yl]-1-[(4,4-difluorocyclohexyl)methyl]pyrrolo [3,2-b]pyridin-3-yl]benzoic acid], the half-maximal inhibitory concentration (IC50) with MV-4-11 cells (MV-4-11, 3d growth) was under 1 µM; at BRD4-BD12 (1-477), under 1 µM.

On to `CCOCc1ccc(-c2cn(CC3CCC(F)(F)CC3)c3cc(-c4c(C)noc4C)cnc23)cc1` [P-0909, 4-[1-[(4,4-difluorocyclohexyl)methyl]-3-[4-(ethoxymethyl)phenyl]pyrrolo[3,2-b]pyridin-6-yl]-3,5-dimethyl-isoxazole], for which the 50% inhibitory concentration (IC50) was under 1 µM in the assay on MV-4-11 cells (MV-4-11, 3d growth) and under 1 µM on BRD4-BD12 (1-477).

Take `Cc1noc(C)c1-c1cnc2c(-c3ccc(COC(C)(C)C)cc3)cn(CC3CCC(F)(F)CC3)c2c1` [P-0910, 4-[3-[4-(tert-butoxymethyl)phenyl]-1-[(4,4-difluorocyclohexyl)methyl]pyrrolo [3,2-b]pyridin-6-yl]-3,5-dimethyl-isoxazole]: the 50% inhibitory concentration (IC50) with MV-4-11 cells (MV-4-11, 3d growth) is under 1 µM; on BRD4-BD12 (1-477) it was under 1 µM. As to `Cc1noc(C)c1-c1cnc2c(-c3ccc(C4(N)CC4)cc3)cn(CC3CCC(F)(F)CC3)c2c1` [P-0911, 1-[4-[1-[(4,4-difluorocyclohexyl)methyl]-6-(3,5-dimethylisoxazol-4-yl)pyrrolo[3,2-b]pyridin-3-yl]phenyl]cyclopropanamine], the IC50 with MV-4-11 cells (MV-4-11, 3d growth) was under 1 µM; at BRD4-BD12 (1-477), under 1 µM.

On to `Cc1noc(C)c1-c1cnc2c(-c3ccc(C(=O)O)cc3)cn(CC3(C)CCCCC3)c2c1` [P-0912, 4-[6-(3,5-dimethylisoxazol-4-yl)-1-[(1-methylcyclohexyl)methyl]pyrrolo [3,2-b]pyridin-3-yl]benzoic acid], for which the IC50 was under 1 µM with MV-4-11 cells (MV-4-11, 3d growth) and under 1 µM on BRD4-BD12 (1-477). Regarding `COC(=O)c1ccc(-c2cn(Cc3ccccn3)c3cc(-c4c(C)noc4C)cnc23)cc1OC` [P-0954, methyl 4-[6-(3,5-dimethylisoxazol-4-yl)-1-(2-pyridylmethyl)pyrrolo[3,2-b]pyridin-3-yl]-2-methoxy-benzoate], at BRD4-BD12 (1-477), the IC50 was under 1 µM.
